These results are taken from patent US12435060B2, “Acylamino bridged heterocyclic compound, and composition and application thereof” (BEIJING SCITECH-MQ PHARMACEUTICALS LIMITED, priority 2019, dated 2025).

Structures are written as SMILES.

The assay deals with HT29 cells. As to the kind of experiment: Inhibition of cell necrosis (CCK8 method), induced programmed necrosis of HT29 cells. The class given is cell-based. The settings on record: Homo sapiens, HT-29; rescue from necrosis induced by TNF-α 20 ng/mL, AT-406 1 μM, Z-VAD-FMK 20 μM; 16-20 hours; CCK-8, OD 450 nm. The essentials: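 HT29 cells in McCOY's 5A with 10% FBS were pre-treated for 30 min with compound (9 fourfold steps, 25000 to 0.38 nM final, 0.25% DMSO). Necrosis was then induced with TNF-α 20 ng/mL, AT-406 1 μM and Z-VAD-FMK 20 μM for 16-20 h. Viability was read by CCK-8 OD450, normalized between uninduced and induced wells, and IC50 was curve-fitted.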
Background: Formazan colour is commonly taken as a measure of viable cells.
As to `CC(C)(C)OCCOc1ccc(Cl)c(-c2ccnc(NC(=O)c3nnc(Cc4ccccc4F)[nH]3)c2)c1` [Example 392, 5-(2-fluorobenzyl)-N-(4-(5-(2-(tert-butoxy)ethoxy)-2-chlorophenyl)pyridin-2-yl)-4H-1,2,4-triazole-3-carboxamide], the IC50 (in general, the midpoint of a concentration-inhibition curve) was not above 100 nM.
In turn, `O=C(Nc1cc(-c2cc(OCCC3CCOCC3)ccc2Cl)c(Cl)cn1)c1nnc(Cc2ccccc2F)[nH]1` [Example 430, N-(5-chloro-4-(2-chloro-5-(2-(tetrahydro-2H-pyran-4-yl)ethoxy)phenyl)pyridin-2-yl)-5-(2-fluorobenzyl)-4H-1,2,4-triazole-3-carboxamide] displayed an IC50 of 100 to 1000 nM.
`COCCOc1ccc(C(F)(F)F)c(-c2ccnc(NC(=O)c3nnc(Cc4ccccc4F)[nH]3)c2)c1` [Example 280, 5-(2-fluorobenzyl)-N-(4-(5-(2-methoxyethoxy)-2-(trifluoromethyl)phenyl)pyridin-2-yl)-4H-1,2,4-triazole-3-carboxamide] showed an IC50 not above 100 nM.
`Cc1ccc(OCCCC(C)(C)O)cc1-c1ccnc(NC(=O)c2nnc(CC3CCCCC3)[nH]2)c1` [Example 175, 5-(cyclohexylmethyl)-N-(4-(5-((4-hydroxy-4-methylpentyl)oxy)-2-methylphenyl)pyridin-2-yl)-4H-1,2,4-triazole-3-carboxamide] registered an IC50 not above 100 nM.
`CCOCCOc1ccc(Cl)c(-c2ccnc(NC(=O)c3nnc(CC4CCCC4)[nH]3)c2)c1` [Example 385, N-(4-(2-chloro-5-(2-ethoxyethoxy)phenyl)pyridin-2-yl)-5-(cyclopentylmethyl)-4H-1,2,4-triazole-3-carboxamide] showed an IC50 not above 100 nM.
In the case of `Cc1ccc(OCC2CCN(C)CC2)cc1-c1ccnc(NC(=O)c2nnc(Cc3ccccc3F)[nH]2)c1` [Example 234, 5-(2-fluorobenzyl)-N-(4-(2-methyl-5-((1-methylpiperidin-4-yl)methoxy)phenyl)pyridin-2-yl)-4H-1,2,4-triazole-3-carboxamide] it was not above 100 nM; in that of `CC(C)(C)OCCOc1ccc(C(F)(F)F)c(-c2ccnc(NC(=O)c3nnc(CC4CCCCC4)[nH]3)c2)c1` [Example 294, 5-(cyclohexylmethyl)-N-(4-(5-(2-(tert-butoxy)ethoxy)-2-(trifluoromethyl)phenyl)pyridin-2-yl)-4H-1,2,4-triazole-3-carboxamide], not above 100 nM; in that of `Cc1ccc(OCCCC2(O)CCCCC2)cc1-c1ccnc(NC(=O)c2nnc(Cc3ccccc3)[nH]2)c1` [Example 164, 5-benzyl-N-(4-(5-(3-(1-hydroxycyclohexyl)propoxy)-2-methylphenyl)pyridin-2-yl)-4H-1,2,4-triazole-3-carboxamide], not above 100 nM.
Molecule `CC(C)OCCOc1ccc(Cl)c(-c2ccnc(NC(=O)c3nnc(Cc4ccccc4)[nH]3)c2)c1` [Example 387, 5-benzyl-N-(4-(2-chloro-5-(2-isopropoxyethoxy)phenyl)pyridin-2-yl)-4H-1,2,4-triazole-3-carboxamide] returned an IC50 not above 100 nM.
As to `Cc1ccc(F)cc1-c1ccnc(NC(=O)c2nnc(Cc3ccccc3)[nH]2)c1` [Example 33, 5-benzyl-N-(4-(5-fluoro-2-methylphenyl)pyridin-2-yl)-4H-1,2,4-triazole-3-carboxamide], the IC50 is 100 to 1000 nM.
In the case of `Cc1ccc(OCCCC(C)(C)O)cc1-c1cc(NC(=O)c2nnc(CC3CCCCC3)[nH]2)ncc1F` [Example 493, 5-(cyclohexylmethyl)-N-(5-fluoro-4-(5-((4-hydroxy-4-methylpentyl)oxy)-2-methylphenyl)pyridin-2-yl)-4H-1,2,4-triazole-3-carboxamide] it was not above 100 nM; in that of `CC(C)(O)CCCOc1ccc(F)c(-c2cc(NC(=O)c3nnc(CC4CCCCC4)[nH]3)ncc2F)c1` [Example 319, 5-(cyclohexylmethyl)-N-(5-fluoro-4-(2-fluoro-5-((4-hydroxy-4-methylpentyl)oxy)phenyl)pyridin-2-yl)-4H-1,2,4-triazole-3-carboxamide], not above 100 nM; in that of `CC(C)(O)CCCOc1ccc(C#N)c(-c2ccnc(NC(=O)c3nnc(Cc4ccccc4)[nH]3)c2)c1` [Example 193, 5-benzyl-N-(4-(2-cyano-5-((4-hydroxy-4-methylpentyl)oxy)phenyl)pyridin-2-yl)-4H-1,2,4-triazole-3-carboxamide], not above 100 nM.
In the case of `O=C(Nc1cc(-c2cc(OCCC3CCOCC3)ccc2Cl)c(Cl)cn1)c1nnc(CC2CCCCC2)[nH]1` [Example 431, N-(5-chloro-4-(2-chloro-5-(2-(tetrahydro-2H-pyran-4-yl)ethoxy)phenyl)pyridin-2-yl)-5-(cyclohexylmethyl)-4H-1,2,4-triazole-3-carboxamide], the IC50 lay in the range of 100 to 1000 nM.
As to `CC(C)(O)CCCOc1ccc(F)c(-c2cc(NC(=O)c3nnc(CC4CCCCC4)[nH]3)ncc2Cl)c1` [Example 321, N-(5-chloro-4-(2-fluoro-5-((4-hydroxy-4-methylpentyl)oxy)phenyl)pyridin-2-yl)-5-(cyclohexylmethyl)-4H-1,2,4-triazole-3-carboxamide], the IC50 was in the range of 100 to 1000 nM.
`O=C(Nc1cc(-c2cc(OCCC3CCOCC3)ccc2C(F)(F)F)ccn1)c1nnc(Cc2ccc(F)cc2)[nH]1` [Example 308, 5-(4-fluorobenzyl)-N-(4-(5-(2-(tetrahydro-2H-pyran-4-yl)ethoxy)-2-(trifluoromethyl)phenyl)pyridin-2-yl)-4H-1,2,4-triazole-3-carboxamide] returned an IC50 not above 100 nM.
Turning to `Cc1ccc(OCC2CCOCC2)cc1-c1cc(NC(=O)c2nnc(Cc3ccccc3)[nH]2)ncn1` [Example 441, 5-benzyl-N-(6-(2-methyl-5-((tetrahydro-2H-pyran-4-yl)methoxy)phenyl)pyrimidin-4-yl)-4H-1,2,4-triazole-3-carboxamide], the IC50 is not above 100 nM.
The result for `Cc1ccc(OCCC2CCOCC2)cc1-c1cc(NC(=O)c2nnc(Cc3ccccc3F)[nH]2)ncc1Cl` [Example 251, N-(5-chloro-4-(2-methyl-5-(2-(tetrahydro-2H-pyran-4-yl)ethoxy)phenyl)pyridin-2-yl)-5-(2-fluorobenzyl)-4H-1,2,4-triazole-3-carboxamide] reads not above 100 nM.
`CC(C)(O)COc1ccc(C(F)(F)F)c(-c2ccnc(NC(=O)c3nnc(Cc4ccccc4F)[nH]3)c2)c1` [Example 265, 5-(2-fluorobenzyl)-N-(4-(5-(2-hydroxyl-2-methylpropoxy)-2-(trifluoromethyl)phenyl)pyridin-2-yl)-4H-1,2,4-triazole-3-carboxamide]: the IC50 is 100 to 1000 nM.
As to `Cc1ccc(OCCCC(C)(C)O)cc1-c1ccnc(NC(=O)c2nnc(CC3CC3)[nH]2)c1` [Example 171, 5-(cyclopropylmethyl)-N-(4-(5-((4-hydroxy-4-methylpentyl)oxy)-2-methylphenyl)pyridin-2-yl)-4H-1,2,4-triazole-3-carboxamide], the IC50 is 100 to 1000 nM.
The molecule `Cc1ccc(OCCCC(C)(C)O)cc1-c1ccnc(NC(=O)c2nnc(Cc3cc(F)cc(Cl)c3)[nH]2)c1` [Example 205, 5-(5-chloro-3-fluorobenzyl)-N-(4-(5-((4-hydroxy-4-methylpentyl)oxy)-2-methylphenyl)pyridin-2-yl)-4H-1,2,4-triazole-3-carboxamide] returned an IC50 of 100 to 1000 nM.
The result for `Cc1ccc(OCCCC(C)(C)O)cc1-c1ccnc(NC(=O)c2nnc(Cc3ccncc3)[nH]2)c1` [Example 221, N-(4-(5-((4-hydroxy-4-methylpentyl)oxy)-2-methylphenyl)pyridin-2-yl)-5-(pyridin-4-ylmethyl)-4H-1,2,4-triazole-3-carboxamide] reads 100 to 1000 nM.
In turn, `COc1ccc(Cl)c(-c2ccnc(NC(=O)c3nnc(Cc4ccccc4)[nH]3)c2)c1` [Example 13, 5-benzyl-N-(4-(2-chloro-5-methoxyphenyl)pyridin-2-yl)-4H-1,2,4-triazole-3-carboxamide] gave an IC50 of 1000 to 10000 nM.
With `O=C(Nc1cc(-c2cc(OCC3CCOCC3)ccc2Cl)ncn1)c1nnc(CC2CCCCC2)[nH]1` [Example 469, 5-(cyclohexylmethyl)-N-(6-(2-chloro-5-((tetrahydro-2H-pyran-4-yl)methoxy)phenyl)pyrimidin-4-yl)-4H-1,2,4-triazole-3-carboxamide], the IC50 was not above 100 nM.
For `CC(C)OCCOc1ccc(C(F)(F)F)c(-c2ccnc(NC(=O)c3nnc(Cc4ccccc4)[nH]3)c2)c1` [Example 287, 5-benzyl-N-(4-(5-(2-isopropoxyethoxy)-2-(trifluoromethyl)phenyl)pyridin-2-yl)-4H-1,2,4-triazole-3-carboxamide], the IC50 was not above 100 nM.
Turning to `Cc1ccc(C(N)=O)cc1-c1ccnc(NC(=O)c2nnc(Cc3ccccc3)[nH]2)c1` [Example 158, 5-benzyl-N-(4-(5-carbamoyl-2-methylphenyl)pyridin-2-yl)-4H-1,2,4-triazole-3-carboxamide], the IC50 was 1000 to 10000 nM.
In the case of `COc1ccc(C)c(-c2ccnc(NC(=O)c3nnc(CC4CCCC4)[nH]3)c2)c1` [Example 102, 5-(cyclopentylmethyl)-N-(4-(5-methoxy-2-methylphenyl)pyridin-2-yl)-4H-1,2,4-triazole-3-carboxamide] it was 100 to 1000 nM.
Regarding `CCOc1ccc(Cl)c(-c2ccnc(NC(=O)c3nnc(Cc4ccccc4)[nH]3)c2)c1` [Example 106, 5-benzyl-N-(4-(2-chloro-5-ethoxyphenyl)pyridin-2-yl)-4H-1,2,4-triazole-3-carboxamide], the IC50 lay within 1000 to 10000 nM.
In the case of `Cc1ccc(OCCCC(C)(C)O)cc1-c1ccnc(NC(=O)c2nnc(Cc3ccc(C#N)cc3)[nH]2)c1` [Example 191, 5-(4-cyanobenzyl)-N-(4-(5-((4-hydroxy-4-methylpentyl)oxy)-2-methylphenyl)pyridin-2-yl)-4H-1,2,4-triazole-3-carboxamide] it was 100 to 1000 nM.
Molecule `Cc1ccc(C#N)cc1-c1ccnc(NC(=O)c2nnc(Cc3ccccc3)[nH]2)c1` [Example 35, 5-benzyl-N-(4-(5-cyano-2-methylphenyl)pyridin-2-yl)-4H-1,2,4-triazole-3-carboxamide] returned a 50% inhibitory concentration (IC50) not above 100 nM.
